Literature values, collected in US9463220B2, “Method for inducing twin calving” (China Agricultural University, priority 2013, dated 2016).

Tested on: cow
Conditions: small doses of FSH with estrus synchronization 13 days before and aspiration of more than 3 large follicles on day 7

follicle-stimulating hormone [FSH]
rate of 2-3 ovulations: 90%
